Assay results as given in ChEMBL document CHEMBL1201862, “PubChem BioAssay data set” (2004).
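These data come from cells grown in 96-well plates and exposed to compound for 48 hours at five concentrations. GI50 is the concentration that inhibits growth by half.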 Active and inactive are the calls of the source. Cut-off read from the data, not from the text of the source: active = GI50 up to about 1.1 µM and inactive = higher.

Tests used:
Test in all cases: NCI-60 cell line screen, 48 h
EKVX = system: EKVX
SR = system: SR
NCI-H23 = system: NCI-H23
UACC-62 = system: UACC-62
KM12 = system: KM12
OVCAR-3 = system: OVCAR-3
A549 = system: A549
PC-3 = system: PC-3
MCF7 = system: MCF7
SN12C = system: SN12C
HOP-62 = system: HOP-62
MDA-MB-231 = system: MDA-MB-231
HCC 2998 = system: HCC 2998
MDA-MB-435 = system: MDA-MB-435
SF-539 = system: SF-539
K562 = system: K562
LXFL 529 = system: LXFL 529
HT-29 = system: HT-29
NCI-H460 = system: NCI-H460
SF-295 = system: SF-295

**Q.** Which GI50 (EKVX) does the source give for `CCN(CC)CCn1c2ccccc2c(=O)c2c(O)ccc(O)c21` here?
**A.** > 46.5 µM (inactive)

**Q.** What about the GI50 (SR) of the same compound?
**A.** 12.4 µM (inactive)

**Q.** And the GI50 (NCI-H23)?
**A.** 45.6 µM (inactive)

**Q.** And the GI50 (UACC-62)?
**A.** 3.48 µM (inactive)

**Q.** What about the GI50 (KM12) of the same compound?
**A.** 49.2 µM (inactive)

**Q.** And the GI50 (OVCAR-3)?
**A.** 31.5 µM (inactive)

**Q.** And the GI50 (A549)?
**A.** 83.9 µM (inactive)

**Q.** What about the GI50 (PC-3) of the same compound?
**A.** 24.5 µM (inactive)

**Q.** What about the GI50 (MCF7) of the same compound?
**A.** 18.8 µM (inactive)

**Q.** What about the GI50 (SN12C) of the same compound?
**A.** 30.8 µM (inactive)

**Q.** And the GI50 (HOP-62)?
**A.** 50.5 µM (inactive)

**Q.** What about the GI50 (MDA-MB-231) of the same compound?
**A.** 16.1 µM (inactive)

**Q.** And the GI50 (HCC 2998)?
**A.** > 41.3 µM (inactive)

**Q.** What about the GI50 (MDA-MB-435) of the same compound?
**A.** 18.6 µM (inactive)

**Q.** And the GI50 (SF-539)?
**A.** 33.8 µM (inactive)

**Q.** And the GI50 (K562)?
**A.** 15.9 µM (inactive)

**Q.** And the GI50 (LXFL 529)?
**A.** 19.9 µM (inactive)

**Q.** And the GI50 (HT-29)?
**A.** 35.9 µM (inactive)

**Q.** And the GI50 (NCI-H460)?
**A.** > 57.9 µM (inactive)

**Q.** And the GI50 (SF-295)?
**A.** 22.5 µM (inactive)

**Q.** With `Cc1cc2c(s1)C(=O)c1sccc1C2=O` as the compound, how does the GI50 (EKVX) read?
**A.** 1.84 µM (inactive)

**Q.** What about the GI50 (SR) of the same compound?
**A.** 3.01 µM (inactive)

**Q.** And the GI50 (NCI-H23)?
**A.** 0.171 µM (active)

**Q.** And the GI50 (UACC-62)?
**A.** 0.24 µM (active)

**Q.** What about the GI50 (KM12) of the same compound?
**A.** 1.63 µM (inactive)

**Q.** And the GI50 (OVCAR-3)?
**A.** 0.83 µM (active)

**Q.** And the GI50 (A549)?
**A.** 0.625 µM (active)

**Q.** And the GI50 (PC-3)?
**A.** 0.942 µM (active)

**Q.** What about the GI50 (MCF7) of the same compound?
**A.** 1.26 µM (inactive)

**Q.** What about the GI50 (SN12C) of the same compound?
**A.** 0.388 µM (active)

**Q.** And the GI50 (MDA-MB-231)?
**A.** 1.07 µM (active)

**Q.** And the GI50 (HCC 2998)?
**A.** 1.75 µM (inactive)

**Q.** What about the GI50 (MDA-MB-435) of the same compound?
**A.** 0.177 µM (active)

**Q.** What about the GI50 (SF-539) of the same compound?
**A.** 0.248 µM (active)

**Q.** And the GI50 (K562)?
**A.** 1.91 µM (inactive)

**Q.** And the GI50 (LXFL 529)?
**A.** 1.19 µM (inactive)

**Q.** And the GI50 (HT-29)?
**A.** 2.04 µM (inactive)

**Q.** What about the GI50 (NCI-H460) of the same compound?
**A.** 1.72 µM (inactive)

**Q.** What about the GI50 (SF-295) of the same compound?
**A.** 0.344 µM (active)
